The subject of assay [1] is immobilisationsstreßinduzierten gastromukosalen Schädigung der Ratte. The assay is described as follows: Immobilisation-stress-induced gastromucosal damage in the rat (ulcer index). It is filed as in vivo, Sprague-Dawley-Ratten. Conditions: Dosis 50 mg/kg, intragastral in 1%iger Tylose. From the text: Untersuchungen am Modell der immobilisationsstreßinduzierten gastromukosalen Schädigung der Ratte
(1984), "Scand. J. Gastroenterol.", 19, (Suppl. 101), 69).
Gestreßt wurden die Tiere unmittelbar nach Applikation. Nach Versuchsende wurden den Tieren die Mägen in Ethernarkose entnommen. Die Mägen wurden entlang der großen Kurvatur eröffnet und gespült. Ausmaß und Beschaffenheit der Läsionen wurden nach einer von Marazzi-Uberti und Turba (C. Med. exp., 4, 284 (1961)) angegebenen Einteilung visuell ausgezählt und als Ulcus-Index ausgedrückt.

For assay [2] the following is noted: hochdosiert, ca. 50 mg/kg; A. Robert u.a. (1984); cited from earlier work.

`CN=C(NC#N)NCCSCc1[nH]cnc1C` [Cimetidin]: the “Ulcus-Index (MW ±) SD” value in assay [1] (rats fasted 16 h, 10 animals, control 1% Tylose 69,8 ± 10,7, significant vs control) was 32,1 ± 6,6*). The “% Hemmung” value in assay [1] (inhibition of Ulcus-Index vs 1% Tylose control) came to 54%. The “ulcus- bzw. cytoprotektive Wirkung” value in assay [2] is reported as “ulcus- bzw. cytoprotektive Wirkung”.

(Values after patent EP0286781A2, “Pharmaceutical preparation for treating gastro-intestinal tract diseases” (HEUMANN PHARMA GMBH & CO, priority 1987, dated 1988).)
